Measurements reported in patent publication US20050032873A1, “3-Amino chroman and 2-amino tetralin derivatives” (Wyeth, priority 2003, published 2005).
Where a name gives a salt, the structure may show the parent alone. Read-outs that look alike come from different tables or passages of the source.

Columns and labels:
5-HT1A receptor [1] = biological target: T1, 5-HT1A receptor (Homo sapiens, UniProt P08908); test: 5-HT1A receptor affinity: displacement of [3H] 8-OH-DPAT; format: binding; set-up: expressed in transfected cells; settings: displacement of [3H] 8-OH-DPAT; CHO cells stably transfected with human 5-HT1A receptors; read-out: 5-HT1A Receptor Affinity Ki
T1 sequence (P08908 1-422): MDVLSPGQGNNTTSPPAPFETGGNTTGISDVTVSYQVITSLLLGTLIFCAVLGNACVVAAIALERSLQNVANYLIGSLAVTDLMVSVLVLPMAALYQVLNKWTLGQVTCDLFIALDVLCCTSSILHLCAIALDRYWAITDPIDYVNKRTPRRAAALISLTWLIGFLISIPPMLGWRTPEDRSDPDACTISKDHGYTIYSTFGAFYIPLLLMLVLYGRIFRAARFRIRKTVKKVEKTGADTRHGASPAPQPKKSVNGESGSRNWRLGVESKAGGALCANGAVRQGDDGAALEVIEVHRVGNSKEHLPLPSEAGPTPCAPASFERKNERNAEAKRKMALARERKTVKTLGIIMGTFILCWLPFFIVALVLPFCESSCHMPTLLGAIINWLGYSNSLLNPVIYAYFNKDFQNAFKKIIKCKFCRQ

[2] = biological target: T2, cloned human 5-HT1A receptors (Homo sapiens, UniProt P08908); test: 35S-GTPγS binding assay, 5-HT1A function; format: biochemical; settings: for IC50: antagonist potency, reversal of 8-OH-DPAT, read-out: 5-HT1A Function GTPγS IC50; for EC50: agonist potency
T2 construct: expressed in transfected cells
T2 sequence (P08908 1-422): T1 sequence (P08908 1-422)

5-HT1A receptor [3] = biological target: T1, 5-HT1A receptor; test: cAMP accumulation assay, 5-HT1A function; format: cell-based; settings: for IC50: cells marked IC50 (antagonist), read-out: 5-HT1A Function cAMP IC50; for Emax / 5-HT1A Function cAMP (Emax): in brackets after EC50 or IC50; for Emax: read-out: 5-HT1A Function cAMP (Emax); for EC50: cells marked EC50 (agonist)
serotonin transporter = biological target: T3, serotonin transporter (Rattus norvegicus, UniProt P31652); test: 5-HT transporter affinity: displacement of 3H-paroxetine from male rat cortical membranes; format: binding; settings: for Ki: displacement of 3H-paroxetine, male rat cortical membranes, read-out: 5-HT Transporter Affinity Ki
T3 construct: displace ^3H-paroxetine from male rat cortical membranes; from tissue; host or cells: male rat cortical membranes
T3 sequence (P31652 whole entry): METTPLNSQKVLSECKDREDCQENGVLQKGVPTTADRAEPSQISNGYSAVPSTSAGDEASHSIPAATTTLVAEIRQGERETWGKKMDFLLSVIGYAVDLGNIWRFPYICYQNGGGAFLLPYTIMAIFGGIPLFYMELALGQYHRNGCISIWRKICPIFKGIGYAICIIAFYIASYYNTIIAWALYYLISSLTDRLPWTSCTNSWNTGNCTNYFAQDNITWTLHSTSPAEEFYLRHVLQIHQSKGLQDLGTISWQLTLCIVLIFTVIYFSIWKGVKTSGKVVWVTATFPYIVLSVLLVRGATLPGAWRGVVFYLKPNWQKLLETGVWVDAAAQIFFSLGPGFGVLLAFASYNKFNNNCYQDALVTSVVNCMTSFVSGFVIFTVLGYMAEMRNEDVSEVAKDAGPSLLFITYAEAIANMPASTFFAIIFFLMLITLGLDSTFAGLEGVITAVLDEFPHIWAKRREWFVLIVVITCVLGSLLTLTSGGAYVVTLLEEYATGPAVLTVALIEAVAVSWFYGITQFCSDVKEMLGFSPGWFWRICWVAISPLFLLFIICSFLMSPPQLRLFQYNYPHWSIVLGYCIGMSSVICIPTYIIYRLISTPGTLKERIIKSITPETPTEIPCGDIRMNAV

[4] = maximum inhibitory effect, in brackets after IC50
[5] = maximum stimulatory effect, in brackets after EC50, read-out: 5-HT1A Function GTPγS (Emax)
[6] = maximum inhibitory effect, in brackets after IC50, read-out: 5-HT1A Function GTPγS (Imax)

SMILES	melting point	Ki (5-HT1A receptor [1]) [µM]	IC50 [2] [µM]	5-HT1A Function GTPγS (Imax) [2, 4] [%]	IC50 (5-HT1A receptor [3]) [µM]	Emax (5-HT1A receptor [3]) [%]	Ki (serotonin transporter) [µM]	EC50 [2] [µM]	Emax [2, 5] [%]	Emax [2, 6] [%]	EC50 (5-HT1A receptor [3]) [µM]	5-HT1A Function cAMP (Emax) (5-HT1A receptor [3]) [%]	5-HT Transporter Affinity, % @ 1 μM (serotonin transporter; @ 1 μM) [% @ 1 μM]
CCCN(CCCc1c[nH]c2c(F)cc(F)cc12)C1COc2c(C(N)=O)ccc(F)c2C1 (stereo not shown) (as salt: hydrochloride) [Compound 129, 3-[[3-(5,7-difluoro-1H-indol-3-yl)propyl](propyl)amino]-5-fluorochromane-8-carboxamide]	130 °C (dec.)												
O=C(NC1CCCC1)c1ccc(F)c2c1CC(N(CCCc1c[nH]c3ccc(F)cc13)C1CCC1)CO2 (stereo not shown) (as salt: hydrochloride) [Compound 66, 3-{cyclobutyl[3-(5-fluoro-1H-indol-3-yl)propyl]amino}-N-cyclopentyl-8-fluorochromane-5-carboxamide]	133 °C (dec.)												
COc1cccc2c1CC(N[C@H]1CC[C@H](c3c[nH]c4ccc(F)cc43)CC1)CO2 (relative stereo) (as salt: hydrochloride) [Compound 181b, trans-N-[4-(5-fluoro-1H-indol-3-yl)cyclohexyl]-5-methoxychroman-3-amine]	265 °C (dec.)												
CCCN(CC1CCc2[nH]c3ccc(F)cc3c2C1)[C@H]1COc2c(F)ccc(C(N)=O)c2C1 (single isomer, unassigned; (-)) [Compound 177a]		0.0603	2.95	100	0.832	0	5.24						
CCN(CCCc1coc2c(OC)cccc12)C1COc2c(F)ccc(C(N)=O)c2C1 (stereo not shown) [Compound 162, 3-{ethyl[3-(7-methoxy-1-benzofuran-3-yl)propyl]amino}-8-fluorochromane-5-carboxamide]		0.00209				0	0.0615	0.0458	87				
C[C@H](CCN(C1CCC1)[C@H]1COc2c(F)ccc(C(N)=O)c2C1)c1c[nH]c2ccc(F)cc12 [Compound 152a, (3R)-3-{cyclobutyl[(3R)-3-(5-fluoro-1H-indol-3-yl)butyl]amino}-8-fluorochromane-5-carboxamide]		0.02	2.2		0.544	0	0.181			100			
CCCN(CCCc1c[nH]c2ccc(F)cc12)C1CCc2c(F)ccc(OC)c2C1 (stereo not shown) [Compound 51, N-[3-(5-fluoro-1H-indol-3-yl)propyl]-N-(5-fluoro-8-methoxy-1,2,3,4-tetrahydronaphthalen-2-yl)-N-propylamine]		0.0114				83	0.00242	0.0153	95		0.013		
CCCN(CCCc1c[nH]c2ccc(F)cc12)[C@@H]1COc2c(F)ccc(OC)c2C1 [Compound 27, (3S)-8-fluoro-N-[3-(5-fluoro-1H-indol-3-yl)propyl]-5-methoxy-N-propylchroman-3-amine]		0.0126				88.5	0.0135	0.116	97		0.0164		
NC(=O)c1ccc(F)c2c1CC(NCCCc1c[nH]c3ccc(F)cc13)CO2 (single isomer, unassigned; (+)) [Compound 1a, (+)-8-fluoro-3-{[3-(5-fluoro-1H-indol-3-yl)propyl]amino}chromane-5-carboxamide]		0.0463				84.5	0.0262	0.993	87		0.0958		
CCCN(CCCc1c[nH]c2ccc(F)cc12)C1COc2c(F)ccc(C(N)=O)c2C1 (single isomer, unassigned; (+)) [Compound 2b, (+)-8-fluoro-3-[[3-(5-fluoro-1H-indol-3-yl)propyl](propyl)amino]-3,4-dihydro-2H-chromene-5-carboxamide]		0.00221					0.00386	0.0363	80		0.0199	97	
CCN(CCCc1coc2ccccc12)C1COc2cccc(OC)c2C1 (stereo not shown) [Compound 21, N-[3-(1-benzofuran-3-yl)propyl]-N-ethyl-5-methoxychroman-3-amine]		0.00038				90.5	0.311	0.0281	98.5		0.00951		
CCN(CCCc1c[nH]c2c(Cl)cccc12)C1COc2c(F)ccc(C(N)=O)c2C1 (stereo not shown) [Compound 110, 3-[[3-(7-chloro-1H-indol-3-yl)propyl](ethyl)amino]-8-fluorochromane-5-carboxamide]		0.00645	0.196			75	0.00459	0.244	61	59	0.0364		
CCCN(C1COc2cccc(OC)c2C1)[C@H]1CC[C@H](c2c[nH]c3ccc(F)cc32)CC1 (relative stereo) [Compound 183, trans-N-[4-(5-fluoro-1H-indol-3-yl)cyclohexyl]-5-methoxy-N-propylchroman-3-amine]		0.183				65.5		10	35		0.302		53
CCCN(C(C)CCc1c[nH]c2ccc(F)cc12)C1COc2c(F)ccc(C(N)=O)c2C1 (single isomer, unassigned) [Compound 12b, 8-fluoro-3-[[3-(5-fluoro-1H-indol-3-yl)-1-methylpropyl](propyl)amino]-3,4-dihydro-2H-chromene-5-carboxamide]		0.0194					0.05	0.366	73.5		0.0626	78	
NC(=O)c1ccc(F)c2c1CC(N(CCc1c[nH]c3ccc(F)cc13)CC1CC1)CO2 (stereo not shown) [Compound 78, 3-{(cyclopropylmethyl)[2-(5-fluoro-1H-indol-3-yl)ethyl]amino}-8-fluorochromane-5-carboxamide]		0.0066	0.384		0.0971	0	0.083			100			
CCCN(CCCCc1c[nH]c2ccc(F)cc12)C1COc2cccc(OC)c2C1 (stereo not shown) [Compound 30, N-[4-(5-fluoro-1H-indol-3-yl)butyl]-5-methoxy-N-propylchroman-3-amine]		0.00362				94	0.0126	0.0946	83		0.0277		
COc1cccc2c1C[C@@H](N(CCCc1c[nH]c3ccc(F)cc13)C1CCC1)CO2 [Compound 35, (3R)-N-cyclobutyl-N-[3-(5-fluoro-1H-indol-3-yl)propyl]-5-methoxy-3,4-dihydro-2H-chromen-3-amine]		0.00214	0.489		0.0234	0	0.041			80			
NC(=O)c1ccc(F)c2c1CC(N(CCCc1c[nH]c3cc(F)ccc13)C1CCC1)CO2 (stereo not shown) [Compound 53, 3-{cyclobutyl[3-(6-fluoro-1H-indol-3-yl)propyl]amino}-8-fluorochromane-5-carboxamide]		0.00502	0.512		0.486	0	0.237			100			
NC(=O)c1ccc(F)c2c1OCC(N(CCCCc1c[nH]c3ccc(F)cc13)CC1CC1)C2 (stereo not shown) [Compound 125, 3-{(cyclopropylmethyl)[4-(5-fluoro-1H-indol-3-yl)butyl]amino}-5-fluorochromane-8-carboxamide]		0.0865				64	0.0068	2.8	63		0.367		
COC(=O)c1ccc(F)c2c1CC(NCCCCc1c[nH]c3ccc(F)cc13)CO2 (stereo not shown) [Compound 57, Methyl 8-fluoro-3-{[4-(5-fluoro-1H-indol-3-yl)butyl]amino}chromane-5-carboxylate]		0.0141				91.5	0.00469	0.247	89		0.0871		
CCN(CCCc1c[nH]c2ccc(F)cc12)C1COc2c(F)ccc(C(N)=O)c2C1 (single isomer, unassigned; (-)) [Compound 3a, (−)-3-{ethyl[3-(5-fluoro-1H-indol-3-yl)propyl]amino}-8-fluoro-3,4-dihydro-2H-chromene-5-carboxamide]		0.0351	1.29	79	0.135		0.005					0	
C[C@@H](CCN(C1CCC1)[C@H]1COc2c(F)ccc(C(N)=O)c2C1)c1c[nH]c2ccc(F)cc12 [Compound 153a, (3R)-3-{cyclobutyl[(3S)-3-(5-fluoro-1H-indol-3-yl)butyl]amino}-8-fluorochromane-5-carboxamide]		0.0202	3.61		0.727	0	0.0615			100			
